Measurements taken from PubChem BioAssay (NCI).
Where “and” joins values, the source holds several entries; their conditions need not be identical. Equal values may be shown once.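 Values below derive from 48-hour exposures of cells grown in 96-well plates, with endpoints linearly interpolated between the two concentrations bracketing the appropriate inhibition level. GI50: concentration for 50% inhibition of growth. The concentration for full growth arrest is given as TGI.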

How the values were obtained:
Test in all cases: NCI tumour cell line growth inhibition, 48 h
RXF 393 renal = tested on: RXF 393 renal
HOP-92 NSCLC = tested on: HOP-92 NSCLC
LXFL 529 NSCLC = tested on: LXFL 529 NSCLC
NCI-H226 lung = tested on: NCI-H226 lung
SF-268 CNS = tested on: SF-268 CNS
OVCAR-8 ovarian = tested on: OVCAR-8 ovarian
UACC-257 melanoma = tested on: UACC-257 melanoma
786-0 renal = tested on: 786-0 renal
HS 578T breast = tested on: HS 578T breast

SMILES | TGI (RXF 393 renal) | TGI (HOP-92 NSCLC) | TGI (LXFL 529 NSCLC) [µM] | TGI (NCI-H226 lung) | TGI (SF-268 CNS) | TGI (OVCAR-8 ovarian) | TGI (UACC-257 melanoma) | TGI (786-0 renal) | GI50 (RXF 393 renal) | GI50 (HOP-92 NSCLC) [µM] | GI50 (HS 578T breast) [µM] | TGI (HS 578T breast) | GI50 (NCI-H226 lung) | GI50 (SF-268 CNS) [µM] | GI50 (OVCAR-8 ovarian) [µM] | GI50 (UACC-257 melanoma) [µM] | GI50 (786-0 renal) [µM]
CC(C)=CCC/C(C)=C/CC/C(C)=C/C1CCC(=O)C1(C)C (configuration not stated) | 37.5 µM | 51.7 µM | 31.1 | 29.4 µM | 33.6 µM | 38.7 µM | 42.7 µM | 32.2 µM | – | – | – | – | – | – | – | – | –
Cc1ccc2c(c1)-c1oc(=O)c(-c3cc4ccccc4oc3=O)cc1C(O)O2 (configuration not stated) | 48.2 µM | 40.5 µM | – | 40.5 µM | > 100 µM | 62.5 µM | 92.6 µM | 39.7 µM | 12.8 µM | 17.3 | 24 | 47.7 µM | 18.9 µM | 34.2 | 19.9 | 34 | 20.9
N#Cc1ccc(NC(=O)Nc2nc3ccc(OC(F)(F)F)cc3s2)cc1 | 7.39 µM | – | – | 10.4 µM | 16.8 µM | 9.91 µM | 6.4 µM | 6.35 µM | 1.87 µM | 0.324 | 1.78 | 7.65 µM | 1.98 µM | 3.06 | 2 | 1.35 | 2
Clc1ccc(COC(Cn2ccnc2)c2ccc(Cl)cc2Cl)c(Cl)c1 (configuration not stated) | 10.5 µM and 26 µM and 14.5 µM | 8.44 µM and 27.1 µM | – | 3.31 µM and 23.2 µM and 24.2 µM | 24.9 µM and 26.9 µM and 28.6 µM | 27.3 µM and 36.9 µM and 22.1 µM | 17.7 µM and 30.3 µM and 23.2 µM | 14.5 µM and 21 µM and 22.9 µM | 2.78 µM and 12.1 µM and 3.84 µM | 1.74 | 5.49 | 24 µM and 32 µM | 1.55 µM and 4.44 µM and 9.24 µM | 7.87 | 4.21 | 5.08 | 4.2
COC1C(O)CC(OC2CC(OC3CC(O[C@@H]4C(=O)c5c(cc6cc(OC7CC(OC8CC(O)C(O)C(C)O8)C(O)C(C)O7)c(C)c(O)c6c5O)CC4[C@H](OC)[C@@H](O)C(C)=O)OC(C)C3O)OC(C)C2O)OC1C (some centres not stated) | 0.364 µM | > 33.3 µM | – | 0.181 µM | > 33.3 µM | > 33.3 µM | 0.0923 µM | > 33.3 µM | 0.0152 µM | 0.032 | 0.0307 | > 33.3 µM | 0.0507 µM | 0.0155 | 0.0217 | 0.0187 | 0.0219
COc1ccc(-c2cc(-c3ccc(Cl)cc3)nc(SCCCCCCC(=O)NO)n2)cc1 | 3.69 µM | 3.67 µM | – | 23.9 µM | 6.54 µM | > 50 µM | > 50 µM | 3.26 µM | 1.27 µM | 1.17 | 1.81 | > 50 µM | 1.9 µM | 1.79 | 1.53 | 1.88 | 1.16
CCOC(=O)C(=O)C(/C(=N/N(C)C)C(=O)Nc1ccc(C)cc1C)c1nc2ccccc2[nH]c1=O (configuration not stated) | > 100 µM | > 100 µM | – | > 100 µM | > 100 µM | > 100 µM | > 100 µM | > 100 µM | – | – | – | > 100 µM | – | – | – | – | –
Cc1cc(C)c(O)c(CNCCCNCc2cc(C)cc(C)c2O)c1 | 4.24 µM | 7.23 µM | – | 21.9 µM | 21.2 µM | 20.3 µM | 4.08 µM | 18.7 µM | 1.93 µM | 1.94 | 2.05 | 5.03 µM | 6.46 µM | 5.97 | 5.09 | 2.14 | 4.69
O=C1CCC(N2C(=O)c3cccc(NCCOCCOCCNC(=O)c4cc5c(o4)C(=O)c4ccccc4C5=O)c3C2=O)C(=O)N1 (configuration not stated) | 3.21 µM | 12.5 µM | – | 3.8 µM | 5.72 µM | 10.5 µM | 2.85 µM | 10.9 µM | 1.67 µM | 3.27 | 2.4 | 7.76 µM | 1.7 µM | 2.18 | 2.04 | 1.48 | 3.14
CN1CCN(Cc2ccc(NC(=O)c3cccc(C#Cc4c(N)ncc5ccc(F)cc45)c3)cc2C(F)(F)F)CC1 | 1.4 µM | 1.3 µM | – | 2.7 µM | 1.58 µM | 2.56 µM | 2.11 µM | 1.74 µM | 0.697 µM | 0.349 | 0.627 | 1.97 µM | 0.265 µM | 0.719 | 1.03 | 0.969 | 0.966
NC(N)=NC(N)=Nc1ccc(S(N)(=O)=O)cc1 | > 100 µM | > 100 µM | – | > 100 µM | > 100 µM | > 100 µM | > 100 µM | > 100 µM | – | – | – | > 100 µM | – | – | – | – | –
CCN(CC)CCOc1ccc(Cc2ccccc2)cc1 | 88.8 µM | 51.1 µM | – | > 100 µM | > 100 µM | > 100 µM | 63 µM | > 100 µM | 24.8 µM | 5.61 | 13.6 | 52.4 µM | 69.7 µM | 35.3 | 60.6 | 22.5 | 27.6
CCC1(N)C(=O)OCc2c1cc1n(c2=O)Cc2cc3ccccc3nc2-1 (configuration not stated) | 63.1 µM and > 100 µM | > 100 µM and 99 µM | – | 34.3 µM and 97.1 µM | > 100 µM | > 72.4 µM | > 100 µM | 49.8 µM and > 54.6 µM | 15.4 µM | 28.4 | > 69.6 | > 100 µM | 2.71 µM | – | 12 | 24.4 | 3.31
